Source: patent US20200055817A1 (AbbVie Deutschland GmbH & Co. KG, priority 2016, published 2020)
pEC50: −log10 of the molar value.

Legend:
Type in all cases: cell-based
[1] = target: T1, human EDG8 (S1PR5) receptor (Homo sapiens, UniProt Q9H228); assay: Aequorin assay, agonist potency, CHO-A21-EDG8#12 cells; details: agonist mode, aequorin luminescence; read-out: S1P5 EC50 range #
T1 construct: carries the transgenes human EDG8 (S1PR5) receptor (Acession number NP_110387.1); expressed in transfected cells; host or cells: CHO-A21-EDG8#12 (CHO clone co-expressing mitochondrial aequorin and chimaeric Gaqi5)
How it was run: (§1)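 CHO cells coexpressing receptor, mitochondrial aequorin and Gαqi5 (S1P3 pool: GNA16) were loaded overnight at RT with 5 μM coelenterazine h in 0.1% fatty-acid-free BSA buffer. Cells were injected onto compound, luminescence recorded 90 s and integrated, normalised to digitonin or 20 μM ATP; sigmoidal fit.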

[2] = target: T2, human EDG1 (S1PR1) receptor (Homo sapiens, UniProt P21453); assay: Aequorin assay, agonist potency, CHO-A21-Edg1#17 cells; details: agonist mode, aequorin luminescence; read-out: S1P1 EC50
T2 construct: expressed in transfected cells; host or cells: CHO-A21-Edg1#17 (CHO clone co-expressing mitochondrial aequorin and chimaeric Gaqi5)
How it was run: as §1

[3] = target: T3, S1P4 (Homo sapiens, UniProt O95977); assay: Aequorin assay, agonist potency, S1P4; details: agonist mode, aequorin luminescence
T3 sequence (O95977 1-384): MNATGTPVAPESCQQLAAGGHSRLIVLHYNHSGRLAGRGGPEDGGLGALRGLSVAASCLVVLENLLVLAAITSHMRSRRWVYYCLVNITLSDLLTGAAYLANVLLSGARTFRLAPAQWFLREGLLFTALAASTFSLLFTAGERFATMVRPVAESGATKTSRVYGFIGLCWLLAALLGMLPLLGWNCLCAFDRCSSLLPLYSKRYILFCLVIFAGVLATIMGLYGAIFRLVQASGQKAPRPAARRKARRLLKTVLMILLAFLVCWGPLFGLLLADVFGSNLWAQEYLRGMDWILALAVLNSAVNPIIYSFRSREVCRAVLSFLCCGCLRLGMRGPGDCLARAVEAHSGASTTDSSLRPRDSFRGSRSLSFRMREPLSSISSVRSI
How it was run: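 Cells loaded overnight at RT with 5 μM coelenterazine h in DMEM/HAM's F12 with HEPES plus 0.1% fatty acid-free BSA, then injected onto compounds; agonist-induced calcium luminescence recorded for 90 s and integrated. Signal normalised to digitonin (100 μM) or ATP (20 μM) wells, S1P as reference agonist; sigmoidal nonlinear regression.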

T1 sequence (Q9H228 whole entry): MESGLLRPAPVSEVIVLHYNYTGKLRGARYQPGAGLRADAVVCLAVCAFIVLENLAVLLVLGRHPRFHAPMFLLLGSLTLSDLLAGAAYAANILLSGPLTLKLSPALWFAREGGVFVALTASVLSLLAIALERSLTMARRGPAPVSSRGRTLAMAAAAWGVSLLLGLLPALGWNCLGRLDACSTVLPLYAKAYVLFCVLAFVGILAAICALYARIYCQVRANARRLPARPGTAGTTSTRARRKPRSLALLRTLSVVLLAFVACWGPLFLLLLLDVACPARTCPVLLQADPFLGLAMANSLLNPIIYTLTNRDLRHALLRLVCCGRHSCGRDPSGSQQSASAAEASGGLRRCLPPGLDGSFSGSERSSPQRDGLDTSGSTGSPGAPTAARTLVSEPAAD
T2 sequence (P21453 whole entry): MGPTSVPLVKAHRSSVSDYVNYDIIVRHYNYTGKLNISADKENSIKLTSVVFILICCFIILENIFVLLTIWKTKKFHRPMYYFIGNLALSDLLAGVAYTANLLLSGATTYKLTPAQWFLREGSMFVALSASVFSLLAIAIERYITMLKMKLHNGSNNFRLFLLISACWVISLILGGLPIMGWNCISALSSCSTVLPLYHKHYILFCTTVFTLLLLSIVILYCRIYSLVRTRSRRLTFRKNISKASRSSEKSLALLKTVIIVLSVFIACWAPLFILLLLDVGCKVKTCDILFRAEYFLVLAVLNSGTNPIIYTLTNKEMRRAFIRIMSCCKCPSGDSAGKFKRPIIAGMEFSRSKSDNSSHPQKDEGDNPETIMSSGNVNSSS

SMILES | pEC50 [1] | pEC50 [2] | pEC50 [3]
O=C(O)C1(CN2CC3(Cc4ccc(OC5Cc6ccccc6C5)cc4C3)C2)CC1 [Example 127, 1-((5′-((2,3-dihydro-1H-inden-2-yl)oxy)-1′,3′-dihydrospiro[azetidine-3,2′-inden]-1-yl)methyl)cyclopropanecarboxylic acid] | 5.00 to 6.00 | < 6.00 | > 6.00
O=C(O)C1(CN2CC3(Cc4ccc(OC5CCc6cccc(Cl)c65)cc4C3)C2)CC1 (stereo not drawn) [Example 129, 1-((5′-((7-chloro-2,3-dihydro-1H-inden-1-yl)oxy)-1′,3′-dihydrospiro[azetidine-3,2′-inden]-1-yl)methyl)cyclopropanecarboxylic acid] | ≥ 8.00 | < 6.00 | > 6.00
Cc1ccccc1CCOc1ccc2c(c1)CC1(C2)CN(CC2(C(=O)O)CC2)C1 [Example 134, 1-((5′-(2-methylphenethoxy)-1′,3′-dihydrospiro[azetidine-3,2′-inden]-1-yl)methyl)cyclopropanecarboxylic acid] | 5.00 to 6.00 | < 6.00 | > 6.00
COc1ccc(CCOc2ccc3c(c2)CC2(C3)CN(CC3(C(=O)O)CC3)C2)cc1 [Example 135, 1-((5′-(4-methoxyphenethoxy)-1′,3′-dihydrospiro[azetidine-3,2′-inden]-1-yl)methyl)cyclopropanecarboxylic acid] | 5.00 to 6.00 | < 6.00 | < 6.00
O=C(O)C1(CN2CC3(Cc4ccc(OCCc5ccccc5F)cc4C3)C2)CC1 [Example 136, 1-((5′-(2-fluorophenethoxy)-1′,3′-dihydrospiro[azetidine-3,2′-inden]-1-yl)methyl)cyclopropanecarboxylic acid] | 5.00 to 6.00 | < 6.00 | > 6.00
O=C(O)C1(CN2CC3(Cc4ccc(OCc5ccc6c(c5)OCO6)cc4C3)C2)CC1 [Example 143, 1-((5′-(benzo[d][1,3]dioxol-5-ylmethoxy)-1′,3′-dihydrospiro[azetidine-3,2′-inden]-1-yl)methyl)cyclopropanecarboxylic acid] | 5.00 to 6.00 | < 6.00 | > 6.00
O=C(O)C1(CN2CC3(Cc4ccc(OCCc5c[nH]c6ccccc56)cc4C3)C2)CC1 [Example 144, 1-((5′-(2-(1H-indol-3-yl)ethoxy)-1′,3′-dihydrospiro[azetidine-3,2′-inden]-1-yl)methyl)cyclopropanecarboxylic acid] | 5.00 to 6.00 | < 6.00 | < 6.00
O=C(O)C1(CN2CC3(Cc4ccc(OCCOc5ccccc5Cl)cc4C3)C2)CC1 [Example 145, 1-((5′-(2-(2-chlorophenoxy)ethoxy)-1′,3′-dihydrospiro[azetidine-3,2′-inden]-1-yl)methyl)cyclopropanecarboxylic acid] | 5.00 to 6.00 | < 6.00 | > 6.00
Cc1cccc(CCCOc2ccc3c(c2)CC2(C3)CN(CC3(C(=O)O)CC3)C2)n1 [Example 146, 1-((5′-(3-(6-methylpyridin-2-yl)propoxy)-1′,3′-dihydrospiro[azetidine-3,2′-inden]-1-yl)methyl)cyclopropanecarboxylic acid] | 5.00 to 6.00 | < 6.00 | < 6.00
O=C(O)CN1CC2(Cc3ccc(C#Cc4ccc(Cl)cc4)cc3O2)C1 [Example 149, 2-(6′-((4-chlorophenyl)ethynyl)-3′H-spiro[azetidine-3,2′-benzofuran]-1-yl)acetic acid] | 5.00 to 6.00 | < 6.00 | < 6.00
O=C(O)CN1CC2(Cc3ccc(C#CC4CCCCC4)cc3O2)C1 [Example 150, 2-(6′-(cyclohexylethynyl)-3′H-spiro[azetidine-3,2′-benzofuran]-1-yl)acetic acid] | ≥ 8.00 | < 6.00 | > 6.00

Next, values leading:

pEC50 [1] | pEC50 [2] | pEC50 [3] | SMILES
7.00 to 8.00 | < 6.00 | > 6.00 | O=C(O)C1(CN2CC3(Cc4ccc(OCc5cccc6c5CCC6)cc4C3)C2)CC1 [Example 125, 1-((5′-((2,3-dihydro-1H-inden-4-yl)methoxy)-1′,3′-dihydrospiro[azetidine-3,2′-inden]-1-yl)methyl)cyclopropanecarboxylic acid]
6.00 to 7.00 | < 6.00 | > 6.00 | O=C(O)C1(CN2CC3(Cc4ccc(OCC5CCCCC5)cc4C3)C2)CC1 [Example 126, 1-((5′-(cyclohexylmethoxy)-1′,3′-dihydrospiro[azetidine-3,2′-inden]-1-yl)methyl)cyclopropanecarboxylic acid]
5.00 to 6.00 | < 6.00 | < 6.00 | O=C(O)C1(CN2CC3(Cc4ccc(OCc5ccc(OCC6CC6)cc5)cc4C3)C2)CC1 [Example 128, 1-((5′-((4-(cyclopropylmethoxy)benzyl)oxy)-1′,3′-dihydrospiro[azetidine-3,2′-inden]-1-yl)methyl)cyclopropanecarboxylic acid]
5.00 to 6.00 | < 6.00 | > 6.00 | O=C(O)C1(CN2CC3(Cc4ccc(OC5CCc6ccccc65)cc4C3)C2)CC1 (stereo not drawn) [Example 130, 1-((5′-((2,3-dihydro-1H-inden-1-yl)oxy)-1′,3′-dihydrospiro[azetidine-3,2′-inden]-1-yl)methyl)cyclopropanecarboxylic acid]
≥ 8.00 | < 6.00 | > 6.00 | O=C(O)C1(CN2CC3(Cc4ccc(OCc5c(F)cccc5C5CC5)cc4C3)C2)CC1 [Example 131, 1-((5′-((2-cyclopropyl-6-fluorobenzyl)oxy)-1′,3′-dihydrospiro[azetidine-3,2′-inden]-1-yl)methyl)cyclopropanecarboxylic acid]
5.00 to 6.00 | < 6.00 | > 6.00 | O=C(O)C1(CN2CC3(Cc4ccc(OCCC5CCCCC5)cc4C3)C2)CC1 [Example 132, 1-((5′-(2-cyclohexylethoxy)-1′,3′-dihydrospiro[azetidine-3,2′-inden]-1-yl)methyl)cyclopropanecarboxylic acid]
5.00 to 6.00 | < 6.00 | > 6.00 | O=C(O)C1(CN2CC3(Cc4ccc(OCCc5ccc(F)cc5)cc4C3)C2)CC1 [Example 137, 1-((5′-(4-fluorophenethoxy)-1′,3′-dihydrospiro[azetidine-3,2′-inden]-1-yl)methyl)cyclopropanecarboxylic acid]
5.00 to 6.00 | < 6.00 | > 6.00 | Cc1ccccc1COc1ccc2c(c1)CC1(C2)CN(CC2(C(=O)O)CC2)C1 [Example 138, 1-((5′-((2-methylbenzyl)oxy)-1′,3′-dihydrospiro[azetidine-3,2′-inden]-1-yl)methyl)cyclopropanecarboxylic acid]
5.00 to 6.00 | < 6.00 | < 6.00 | COc1ccc(COc2ccc3c(c2)CC2(C3)CN(CC3(C(=O)O)CC3)C2)cc1 [Example 139, 1-((5′-((4-methoxybenzyl)oxy)-1′,3′-dihydrospiro[azetidine-3,2′-inden]-1-yl)methyl)cyclopropanecarboxylic acid]
5.00 to 6.00 | < 6.00 | < 6.00 | O=C(O)C1(CN2CC3(Cc4ccc(OCc5ccccc5F)cc4C3)C2)CC1 [Example 140, 1-((5′-((2-fluorobenzyl)oxy)-1′,3′-dihydrospiro[azetidine-3,2′-inden]-1-yl)methyl)cyclopropanecarboxylic acid]
5.00 to 6.00 | < 6.00 | > 6.00 | O=C(O)C1(CN2CC3(Cc4ccc(OCc5ccccc5Cl)cc4C3)C2)CC1 [Example 141, 1-((5′-((2-chlorobenzyl)oxy)-1′,3′-dihydrospiro[azetidine-3,2′-inden]-1-yl)methyl)cyclopropanecarboxylic acid]
5.00 to 6.00 | < 6.00 | < 6.00 | N#Cc1ccc(COc2ccc3c(c2)CC2(C3)CN(CC3(C(=O)O)CC3)C2)cc1 [Example 142, 1-((5′-((4-cyanobenzyl)oxy)-1′,3′-dihydrospiro[azetidine-3,2′-inden]-1-yl)methyl)cyclopropanecarboxylic acid]
6.00 to 7.00 | < 6.00 | > 6.00 | N#Cc1cccc(COc2ccc3c(c2)CC2(C3)CN(CC3(C(=O)O)CC3)C2)c1 [Example 147, 1-((5′-((3-cyanobenzyl)oxy)-1′,3′-dihydrospiro[azetidine-3,2′-inden]-1-yl)methyl)cyclopropanecarboxylic acid]
5.00 to 6.00 | < 6.00 | > 6.00 | O=C(O)C1(CN2CC3(Cc4ccc(OCCc5cccc(F)c5)cc4C3)C2)CC1 [Example 148, 1-((5′-(3-fluorophenethoxy)-1′,3′-dihydrospiro[azetidine-3,2′-inden]-1-yl)methyl)cyclopropanecarboxylic acid]
